Holding throughout (experiment): graphene oxide fluorescence desorption assay
The test system of experiment [1] is OA-27 (DNA, aptamer) CAGCTCAGAAGCTTGATCCTATTTGACCATGTCGAGGGAGACGCGCAGTCGCTACCACCTGACTCGAAGTCGTGCATCTG
To be noted: 150 mM Na+, 2 mM Mg2+, binding buffer 50 mM Tris, pH 7.4; for binding: 1 μM compound tested, 150 nM aptamer.

Experiment [2] deals with OA-08 (DNA, aptamer) CAGCTCAGAAGCTTGATCCTAGCCCGCCAACCTACATCATCTACACTTCGTTTTAACCTTGACTCGAAGTCGTGCATCTG
To be noted: 150 mM Na+, 2 mM Mg2+, binding buffer 50 mM Tris, pH 7.4; for binding: 1 μM compound tested, 150 nM aptamer.

Experiment [3] deals with OA-17 (DNA, aptamer) CAGCTCAGAAGCTTGATCCTTTCCCCAAACTGTTGCAACCTCTGCTTTCTTTCGCTATATGACTCGAAGTCGTGCATCTG
The conditions noted are these: 150 mM Na+, 2 mM Mg2+, binding buffer 50 mM Tris, pH 7.4; for binding: 1 μM compound tested, 150 nM aptamer.

In experiment [4] the test system is OA-14 (DNA, aptamer) CAGCTCAGAAGCTTGATCCTATGCTTCGTGGGACAAGAGTTGACACATCGTCGTTAGGTTGACTCGAAGTCGTGCATCTG
The conditions noted are these: 150 mM Na+, 2 mM Mg2+; binding buffer 50 mM Tris, pH 7.4; 1 μM OA, 5–200 nM aptamer.

Experiment [5] has as its system OA-09 (DNA, aptamer) CAGCTCAGAAGCTTGATCCTTAGCACACAACCCTTTGATTGGGATATCTCATCCCTCGGACTCGAAGTCGTGCATCTG
The conditions noted are these: 150 mM Na+, 2 mM Mg2+; binding buffer 50 mM Tris, pH 7.4; 1 μM OA, 5–200 nM aptamer.

For experiment [6], the system named is OA-22 (DNA, aptamer) CAGCTCAGAAGCTTGATCCTGGCCCCGATATGATTGCTATCATTCGCATCTGCTTCACTTGACTCGAAGTCGTGCATCTG
The conditions noted are these: 150 mM Na+, 2 mM Mg2+; binding buffer 50 mM Tris, pH 7.4; 1 μM OA, 5–200 nM aptamer.

The test system of experiment [7] is OA27-1 (DNA, aptamer) ATTTGACCATGTCGAGGGAGACGCGCAGTCGCTACCACCT
To be noted: 150 mM Na+, 2 mM Mg2+; binding buffer 50 mM Tris, pH 7.4; FAM-aptamer, GO separation.

The subject of experiment [8] is OA-01 (DNA, aptamer) CAGCTCAGAAGCTTGATCCTGCACACGAGTTACGCCCCATCGTTGTCCTTTCCCTCACGTGACTCGAAGTCGTGCATCTG
To be noted: 150 mM Na+, 2 mM Mg2+; binding buffer 50 mM Tris, pH 7.4; 1 μM OA, 5–200 nM aptamer.

For experiment [9], the system named is OA-21 (DNA, aptamer) CAGCTCAGAAGCTTGATCCTGGATGACCGTTGCAAGCGATCCATTGTTGTTTGATCATGTGACTCGAAGTCGTGCATCTG
To be noted: 150 mM Na+, 2 mM Mg2+; binding buffer 50 mM Tris, pH 7.4; 1 μM OA, 5–200 nM aptamer.

What is called Kd is the constant that tells how readily two partners part at equilibrium. Low values mean higher affinity, high ones lower affinity.

Regarding `C/C(=C/C=C/[C@@H](C)C(=O)O)[C@H]1CN[C@H](C(=O)O)[C@H]1CC(=O)O`, in experiment [1], the binding entry was “no”.

As to `C=C1[C@@H](O)[C@@H]2O[C@]3(CC[C@H](/C=C/[C@@H](C)[C@@H]4CC(C)=C[C@@]5(O[C@H](C[C@@](C)(O)C(=O)O)CC[C@H]5O)O4)O3)CC[C@H]2O[C@@H]1[C@@H](O)C[C@H](C)[C@@H]1CCC[C@@]2(OCCC[C@H]2C)O1`, the binding entry in experiment [1] is recorded as “no”; in [2] it was “yes”; in experiment [3], “yes”.

With `C=C1[C@@H](O)[C@@H]2O[C@]3(CC[C@H](/C=C/[C@@H](C)[C@@H]4CC(C)=C[C@@]5(O[C@H](C[C@@](C)(O)C(=O)O)CC[C@H]5O)O4)O3)CC[C@H]2O[C@@H]1[C@@H](O)C[C@H](C)[C@H]1O[C@@]2(CCCCO2)CC[C@H]1C`, the Kd in experiment [4] was determined as 1772 ± 543 nM; in [5], 127 ± 39 nM; in [6], 70 ± 16 nM; in experiment [7], 40 nM; in [1] (1 μM OA, 5–200 nM aptamer), 42 ± 4 nM; in experiment [8], 125 ± 22 nM. In addition, the Kd in [2] (1 μM OA, 5–200 nM aptamer) is recorded as 88 ± 30 nM; in [3] (1 μM OA, 5–200 nM aptamer), 79 ± 20 nM; in [9] it was 118 ± 18 nM.

Regarding `C=C1[C@@H](O)[C@@H]2O[C@]3(CC[C@H](/C=C/[C@@H](C)[C@@H]4CC(C)=C[C@@]5(O[C@H](C[C@@](C)(O)C(=O)O)CC[C@H]5O)O4)O3)CC[C@H]2O[C@@H]1[C@@H](O)C[C@H](C)[C@H]1O[C@@]2(CC[C@H]1C)OCCC[C@H]2C`, the binding entry in experiment [1] was “no”; in experiment [2], “yes”; in experiment [3] it was “yes”.

The record behind these values is article PMC4761938 (2016).
